Results: US5760017A, “Cyclodextrin derivatives usable in particular for solubilizing hydrophobic chemical compounds such as medicaments and their preparation process” (priority 1993, dated 1998)
Values after ≈ are worked out from the molar mass of the structure shown. Read-outs that look alike come from different tables or passages of the source.

Columns and labels:
[1] = Ionization potential measurements (pK) by potentiometry; assay type: physicochemical
[2] = Solubilization of prednisolone in water by the cyclodextrin derivative; assay type: physicochemical
Description: 10 μmole of heptakis-6-ethanolamino-6-deoxycyclomaltoheptaose (in hydrochloride form) prepared in example 1, are dissolved in 1 ml of pure water (apyrogenic water for injection) and addition takes place of 5 μmole of prednisolone in the form of a 50 mmole/l concentrated solution in acetone. The acetone is eliminated by nitrogen passage for 10 minutes and the solution is lyophilized.
The residual solid, which contains 10 μmole of the cyclodextrin derivative and 5 μmole of prednisolone, is redissolved in the minimum of water at 25° C.

[3] = Solubility in water under physiological conditions; conditions: sodium phosphate buffer, pH 7.4, aqueous buffer
[4] = test system: human erythrocytes; experiment: Hemolytic properties on human erythrocytes; assay type: cell-based; conditions: 5 mmole/l hydrochloride solution (4 ml) with 0.4 ml human erythrocytes, pH 7.4, 30 minutes, 37° C.
Description: Thus, the hemolytic properties of the derivative obtained in example 1 were tested by contacting 0.4 ml of a solution of human erythrocytes and 4 ml of the 5 mmole/l hydrochloride solution, at a pH of 7.4, for 30 minutes and 37° C.

[5] = potentiometry, single pK, read-out: pK (single)
[6] = Solubility in water under physiological conditions, free base form, pH 7.40, 25° C.
[7] = Solubility in water under physiological conditions, hydrochloride form, pH 7.40, 25° C.

| SMILES | pKa [1, 5] | maximum prednisolone solubility reached in water in the presence of the cyclodextrin (derivative) [2] [mM] | solubility [3, 6] [mM] | solubility [3, 7] [mM] | pKa ([1]; first of two pK's, read-out: pK (first of two)) | pKa ([1]; second of two pK's, read-out: pK (second of two)) | maximum prednisolone solubility reached in water in the presence of the cyclodextrin (derivative) ([2]; 25° C., 10 μmole cyclodextrin derivative and 5 μmole prednisolone, lyophilized, redissolved in minimum of water (cyclodextrin derivative at 60 mmole/l for the per-substituted derivative)) [mM] | solubility [3] [mM] | hemolysis (in words) [4] |
| --- | --- | --- | --- | --- | --- | --- | --- | --- | --- |
| OCCNC[C@H]1O[C@@H]2O[C@H]3[C@H](O)[C@@H](O)[C@@H](O[C@H]4[C@H](O)[C@@H](O)[C@@H](O[C@H]5[C@H](O)[C@@H](O)[C@@H](O[C@H]6[C@H](O)[C@@H](O)[C@@H](O[C@H]7[C@H](O)[C@@H](O)[C@@H](O[C@H]8[C@H](O)[C@@H](O)[C@@H](O[C@H]1[C@H](O)[C@H]2O)O[C@@H]8CNCCO)O[C@@H]7CNCCO)O[C@@H]6CNCCO)O[C@@H]5CNCCO)O[C@@H]4CNCCO)O[C@@H]3CNCCO [Example 2, heptakis-6-ethanolamino-6-deoxycyclomaltoheptaose] | 7.05 | 30 | 140 (≈ 201 mg/mL) | 350 (≈ 503 mg/mL) |  |  |  |  |  |
| NCCNC[C@H]1O[C@@H]2O[C@H]3[C@H](O)[C@@H](O)[C@@H](O[C@H]4[C@H](O)[C@@H](O)[C@@H](O[C@H]5[C@H](O)[C@@H](O)[C@@H](O[C@H]6[C@H](O)[C@@H](O)[C@@H](O[C@H]7[C@H](O)[C@@H](O)[C@@H](O[C@H]8[C@H](O)[C@@H](O)[C@@H](O[C@H]1[C@H](O)[C@H]2O)O[C@@H]8CO)O[C@@H]7CO)O[C@@H]6CO)O[C@@H]5CO)O[C@@H]4CO)O[C@@H]3CO [reference compound] |  |  |  |  | 7.5 | 9.5 | 12 | 70 (≈ 82.4 mg/mL) |  |
| OCCNC[C@H]1O[C@@H]2O[C@H]3[C@H](O)[C@@H](O)[C@@H](O[C@H]4[C@H](O)[C@@H](O)[C@@H](O[C@H]5[C@H](O)[C@@H](O)[C@@H](O[C@H]6[C@H](O)[C@@H](O)[C@@H](O[C@H]7[C@H](O)[C@@H](O)[C@@H](O[C@H]8[C@H](O)[C@@H](O)[C@@H](O[C@H]1[C@H](O)[C@H]2O)O[C@@H]8CO)O[C@@H]7CO)O[C@@H]6CO)O[C@@H]5CO)O[C@@H]4CO)O[C@@H]3CO [Example 1, mono-6-ethanolamino-6-deoxycyclomaltoheptaose] | 7.1 | 18 | 40 (≈ 47.1 mg/mL) | 95 (≈ 112 mg/mL) |  |  |  |  | no hemolysis was observed |
